The values that follow come from patent US6696081B2, “Carbohydrate based lipid compositions and supramolecular structures comprising same” (Duke University, priority 2000, dated 2004).

For series [1] the following is noted: literature value, Marsh, CRC Handbook of Lipid Bilayers; cited from earlier work.
Series [2] in a line: Modulated differential scanning calorimetry (MDSC) of hydrated lipid bilayers. The class given is physicochemical. As to conditions: for enthalpy of transition / phase-transition temperature (Tm) of the bilayer: lipid hydrated in water, MDSC. On the procedure:
The phase-transition temperatures (Tm) of the bilayers formed by DLRPC, DMRPC and DARPC were determined by modulated differential scanning calorimetry (MDSC). […] For DARPC, the similarity in Tm was not entirely unexpected since tail—tail interactions contribute more to the Tm as the tail length increases. […] At the phase-transition temperature, the bilayer transformed from the gel-liquid crystalline phase in glycerol based phospholipids such as DLPC and DMPC. This endothermic process was observed as two discreet events. A small pre-transition peak, corresponding to the conversion from a lamellar gel (Lβ) phase to rippled gel (Pβ) phase, occurred below a much larger sharp main transition peak corresponding to conversion of the Pβ phase to the liquid crystalline Lα phase. The temperature at which the pre-transition existed as well as the enthalpy of the transition both changed as a function of tail length in a linear pattern. This presence of two well-defined phase transitions was not observed for the carbohydrate-based lipids.
Thermal Analysis of DLRPC 1-2 mgs of lipid were hermetically sealed with […] water in an aluminum pan. The modulation was set to ±1.00° C. every 40 seconds and the pan was equilibrated at −15° C. The temperature was increased at 0.5° C./min to 70° C. where the temperature was held for 2 minutes. The temperature was then reduced to −10° C. and held at this temperature for 2 minutes. This heating-cooling cycle was repeated two more times before the sample was held isothermal at −10° C. for 20 minutes. Integrating under the heat flow peak curve of the main peak provides the enthalpy of the transition. TA Instruments Universal Analysis computer program (available from TA Instruments of New Castle, Del., United States of America) was used to analyze the data. DLRPC has a Tm of 15.75° C. and an enthalpy of 3.3 kcal/mol.
The same modulated differential scanning calorimetry method used on DLRPC was employed to obtain thermotropic data on DMRPC.
The same modulated differential scanning calorimetry method used on DLRPC was employed to obtain thermotropic data on DARPC.

The conditions of series [3]: glycerol analog, Van Dijck et al.; cited from earlier work.
The next series concerns PLA2 (naja naja venom). Kind of series: pH-stat phospholipase assay. It counts as biochemical. As to conditions: lipid as substrate, Triton X-100 40 mM, CaCl2 10 mM, 40° C., pH 8.0, PLA2 0.1 units/mL. On the procedure:
The pH-stat phospholipase assays were performed on a Metrohm 718 STAT Titrino pH-stat following a procedure described by Yuan et al. (Yuan, W.; Berman, R. J.; Gelb, M. H. J. Am. Chem. Soc. 1987, 109, 8071-8081; Deems, R. A.; Dennis, E. A. Methods Enzym 1981, 71, 703-710.) Before the assays were performed, the pH-stat was calibrated at pH 7 and pH 4. The NaOH (0.01 N) titrant was standardized by titration to pH 8.65 with a weighed amount of potassium hydrogen-phthalate in 40 mL of Dl water. The lipid was transferred to a 5 mL round bottom flask in methylene chloride/methanol (98/2) and the solvent was removed by rotoevaporation. High vacuum then removed trace amounts of remaining solvent. The lipid film was rehydrated with 2 mL of an aqueous solution containing TRITON X-100™ detergent (Sigma Chemical Company, St. Louis, Mo.) (40 mM) and CaCl2 (10 mM) and then sonicated briefly to solubilize the lipids.
Next, the solution was immersed in a temperature-controlled bath at 40° C. and stirred with a magnetic stir bar. A stream of argon was passed over the reaction mixture to prevent CO2 absorption. A microelectrode (Metrohm 6.0224.100 pH 1-11/0-60° C. Idrolyte) was inserted through the top of the reaction vessel along with the dosing tube from the pH-stat. The reaction mixture was adjusted to a pH of 8.2 by addition of NaOH. Next, 0.2 units of PLA2 (naja naja venom, Sigma Chemical Company, St. Louis, Mo.) (0.1 units/mL) was added to the reaction and the reaction started. The pH was allowed to drop to 8.0 and held at this value by addition of NaOH. At pH 8, the fatty acids were almost completely ionized; therefore, the amount of base added as a function of time indicates cleavage of the ester bond.
In this Example, enzymatic activity was recorded using a pH-stat, which maintains a specific pH by adding base during the enzymatic reaction. During these assays, DMPC was hydrolyzed with an initial average rate of 6.19 E-08 (moles NaOH/minute) (std dev 6.72E-10).
Next, whether DMRPC inhibits PLA2 activity was investigated. Using DMPC (5 mM) as a substrate, DMRPC was added to the reaction mixture at varying concentrations. […] With a change in structure, different carbohydrate-based phospholipids could inhibit PLA2.

Series [4] is described as follows: Carboxyfluorescein leakage assay of carbohydrosomes. The class given is physicochemical. The settings on record: vesicles in 20 mM PBS pH 7.4. An excerpt: The following procedure is adapted from Weinstein et al. (Weinstein, et al., Self-Quenching of Carboxyfluorescein Fluorescence: Uses in Studying Liposome Stability and Liposome-Cell Interaction; Weinstein, J. N.; et al., Ed.; CRC Press, Inc.: Boca Raton, Fla., United States of Amenica 1984; Vol. 3, pp 183-204.) and was successfully used in DMPC control experiments. Immediately before use, the carbohydrate-based lipid DMRPC, was passed through a C-18 SEP PAK™ column using a solvent system of 10% MeOH/CH3CN. Both the cholesterol and DMRPC were dissolved in chloroform and mixed. The mixtures were dried by rotoevaporation in a 100 mL round bottom flask before being thoroughly dried by high vacuum. […] The size of the liposomes was determined using dynamic light scattering. […] The filtered liposomes were diluted into osmotically equivalent 20 mM PBS buffer at pH 7.4 and the fluorescence intensity was measured over time. […]
As discussed herein above, one of the most wide-spread uses of liposomes is as drug delivery vehicles in warm-blooded vertebrates, including humans. […] In this Example, release of the self-quenching dye 5(6)-carboxyfluorescein (encapsulated in 5 mg/mL) was monitored over time by preparing carboxyfluorescein-containing carbohydrosomes using the high-pressure extrusion method. […]

For series [5] the following is noted: 40 mol % cholesterol; McMullen et al.; cited from earlier work.
Series [6] is described as follows: MDSC thermal analysis of DLRPA as a function of pH. It counts as physicochemical. An excerpt:
The same modulated differential scanning calorimetry method used on DLRPC was employed to obtain thermotropic data on DLRPA. Instead of using water to hydrate the samples however, the following 5 buffers were utilized: a) 0.1 M KCl/HCl at pH 1.5, b) 0.1 M KCl/HCl at pH 4.14, c) 0.1 M Tris-HCl at pH 7.4, d) 0.01 M sodium borate at pH 8.44, and e) 0.01 M sodium borate at pH 9.5.
The effect of pH on the phase-transition temperature of DLRPA supramolecular structures was probed using modulated differential scanning calorimetry. Experiments were performed in the following 5 solutions: a) 0.1 M KCl/HCl at pH 1.5, b) 0.1 M KCl/HCl at pH 4.14, c) 0.1 M Tris-HCl at pH 7.4, d) 0.01 M sodium borate at pH 8.44, and e) 0.01 M sodium borate at pH 9.5.

Values joined by “and” are separate entries in the source; they are usually repeats but may differ in a detail not shown here. Equal entries are not always repeated. Where two headings read alike, the source gives them in different places.

For the molecule `CCCCCCCCCCCCCCCCCCCC(=O)OC[C@H](COP(=O)([O-])OCC[N+](C)(C)C)OC(=O)CCCCCCCCCCCCCCCCCCC` [DAPC, reference compound], in series [1], the “enthalpy of transition (literature)” value is 11.93 kcal/mol. Moreover, in series [2], the enthalpy of transition came to 12.6 ± 0.7 kcal/mol and the “phase-transition temperature (Tm) of the bilayer” value (“phase-transition temperature (Tm)” for short) worked out at 66 °C.

Regarding `CCCCCCCCCCCC(=O)OC[C@H](COP(=O)(O)O)OC(=O)CCCCCCCCCCC` [DLPA, dilauroyl phosphatidic acid], in series [3], the “pH at which the first proton of the phosphate is lost” value is recorded as 3-4 and the “pH at which the second proton of the phosphate is lost” value was roughly 7.

Consider `CCCCCCCCCCCC(=O)OC[C@H](COP(=O)([O-])OCC[N+](C)(C)C)OC(=O)CCCCCCCCCCC` [DLPC, 1,2-dilauroyl-sn-glycero-3-phosphocholine, reference compound], for which, in series [2], the enthalpy of transition is reported as 1.5 kcal/mol and the “phase-transition temperature (Tm)” value is −1.1±0.8 °C.

For the molecule `CCCCCCCCCCCC(=O)O[C@H]1[C@H](OC)O[C@H](COP(=O)([O-])OCC[N+](C)(C)C)[C@H]1OC(=O)CCCCCCCCCCC` [DLRPC, Methyl-2,3-di-O-lauroyl-b-D-ribo-5-phosphocholine], the “increase of Tm over the glycerol analog” value in series [2] (DLRPC vs DLPC, DMRPC vs DMPC) turned out to be 16 °C. Besides, in series [2], the enthalpy of transition was 3.3 ± 0.3 kcal/mol and 3.3 kcal/mol; the “phase-transition temperature (Tm)” value is 15.75±0.05 °C and 15.75 °C.

For the molecule `CCCCCCCCCCCCCC(=O)OC[C@H](COP(=O)([O-])OCC[N+](C)(C)C)OC(=O)CCCCCCCCCCCCC` [DMPC, reference compound], in the series with PLA2 (naja naja venom), the “initial average rate of hydrolysis by PLA2” value is 6.19 E-08 moles NaOH/minute and 6.19 E-08 (std. dev. 6.72E-10) moles NaOH/minute. For the same molecule, the “enthalpy of transition (literature)” value in series [1] is 5.9 ± 0.6 kcal/mol. In addition, in series [2], the enthalpy of transition came out at 5.6 ± 1.1 kcal/mol and the “phase-transition temperature (Tm)” value was 23.5 °C. In series [4], the “release of carboxyfluorescein in the first 20 minutes” value is on record as “release dye over the first 20 minutes”. Also, the “increase in phase-transition temperature” value in series [5] was no more than 17 °C.

Take “bis-(2,3-lauroyl)-1-methoxy-5-ribo-phosphatidic acid [DLRPA]”: the “pH at which the first proton of the phosphate is lost” value in series [6] (from Tm versus pH profile) is given as 3-4. In series [6] (from Tm versus pH profile), the “pH at which the second proton of the phosphate is lost” value is reported as roughly 8.5. The Tm in series [6] (pH 1.5, 0.1 M KCl/HCl) is roughly 45 °C; in series [6] (pH 4.14, 0.1 M KCl/HCl) it was 34 °C; in series [6] (pH 7.4, 0.1 M Tris-HCl), 31 °C; in series [6] (pH 8.4, 0.01 M sodium borate), 29 °C; in series [6] (pH 9.5, 0.01 M sodium borate), roughly 18 °C.

Regarding “methyl-2,3-di-O-arachadonyl-b-D-ribo-5-phosphocholine [DARPC]”, in series [2], the enthalpy of transition was 5.1 ± 1.5 kcal/mol and 5.1 kcal/mol; the “phase-transition temperature (Tm)” value was 63.5±0.6 °C and 63.5 °C.
